Columns and labels:
[1] = test system: α-isomaltosylglucosaccharide-forming enzyme from Bacillus globisporus N75; experiment: Action on saccharides (TLC before and after enzymatic reaction); assay type: biochemical; design: key: −: it showed no change; +: it showed a slight reduction of the color spot of the substrate and the formation of other reaction product; ++: it showed a high reduction of the color spot of the substrate and the formationof other reaction product; +++: it showed a substantial disappearance of the substrate spot and the formation of other reaction product; details: two units/g substrate, substrate 2% (w/v), 30° C., pH 6.0, 24 hours
Method: (§1) It was tested whether saccharides can be used as substrates for the polypeptide of α-isomaltosylglucosaccharide-forming enzyme of the present invention. For the purpose, a solution of maltose, maltotriose, maltotetraose, maltopentaose, maltohexaose, maltoheptaose, isomaltose, isomaltotriose, panose, isopanose, trehalose, kojibiose, nigerose, neotrehalose, cellobiose, gentibiose, maltitol, maltotriitol, lactose, sucrose, erlose, selaginose, maltosyl glucoside, or isomaltosyl glucoside was prepared.
(§2) To each of the above solutions was added two units/g substrate of a purified polypeptide specimen of α-isomaltosylglucosaccharide-forming enzyme from either Bacillus globisporus C11 obtained by the method in Experiment 1-3, Bacillus globisporus N75 obtained by the method in Experiment 2-3, or Arthrobacter globiformis A19 obtained by the method in Experiment 3-3, and the resulting each solution was adjusted to give a substrate concentration of 2% (w/v) and incubated at 30° C. and pH 6.0, except for using pH 8.4 for the enzyme from Arthrobacter globiformis A19, for 24 hours. In order to analyze the saccharides in the reaction mixture before and after the enzymatic reaction, silica gel thin-layer chromatography (hereinafter, abbreviated as “TLC”) was carried out. After two-times development using, as a developer, a mixture solution of n-butanol, pyridine, and water (=6:4:1), and, as a thin-layer plate, “KIESELGEL 60”, an aluminum plate (20×20 cm) for TLC commercialized by Merck & Co., Inc., Rahway, USA, the saccharides in the reaction mixture were examined whether the enzyme acted or not by the coloration of sugars by the sulfuric acid-methanol method.

[2] = test system: α-isomaltosylglucosaccharide-forming enzyme from Bacillus globisporus C11; experiment: as above; assay type: biochemical; design: key: −: it showed no change; +: it showed a slight reduction of the color spot of the substrate and the formation of other reaction product; ++: it showed a high reduction of the color spot of the substrate and the formationof other reaction product; +++: it showed a substantial disappearance of the substrate spot and the formation of other reaction product; details: two units/g substrate, substrate 2% (w/v), 30° C., pH 6.0, 24 hours
Method: as §1, §2

[3] = test system: α-isomaltosylglucosaccharide-forming enzyme from Arthrobacter globiformis A19; experiment: as above; assay type: biochemical; design: key: −: it showed no change; +: it showed a slight reduction of the color spot of the substrate and the formation of other reaction product; ++: it showed a high reduction of the color spot of the substrate and the formationof other reaction product; +++: it showed a substantial disappearance of the substrate spot and the formation of other reaction product; details: two units/g substrate, substrate 2% (w/v), 30° C., pH 8.4, 24 hours
Method: as §1, §2

[4] = test system: polypeptide having α-isomaltosylglucosaccharide-forming enzyme activity, obtained in Experiment 1-3; experiment: Reaction product from maltooligosaccharide (sugar composition by HPLC); assay type: biochemical, Bacillus globisporus C11; design: unit not given here; details: 1% (w/v) substrate, 35° C., pH 6.0, 8 hours; for Sugar composition of reaction mixture, substrate Maltopentaose: 0.1 unit/g-solid; for Sugar composition of reaction mixture, substrate Maltotetraose: 0.2 unit/g-solid; for Sugar composition of reaction mixture, substrate Maltotriose / Sugar composition of reaction mixture, substrate Mlatose: two units/g-solid
Method: To an aqueous solution containing one percent (w/v) of maltose, maltotriose, maltotetraose, or maltopentaose as a substrate was added the polypeptide having α-isomaltosylglucosaccgaride-forming enzyme activity, obtained in Experiment 1-3, in an amount of two units/g-solid for maltose and maltotriose, 0.2 unit/g-solid for maltotetraose, and 0.1 unit/g-solid for maltopentaose, followed by incubation at 35° C. and pH 6.0 for 8 hours. After stopping the enzymatic reaction by a 10-minutes incubation, sugar compositions in the reaction mixture were measured by HPLC using “YMC Pack ODS-AQ303”, a column commercialized by YMC Co., Ltd., Tokyo, Japan, at a column temperature of 40° C. and a flow rate of 0.5 ml/minutes of water, and using as a detector “RI-8012”, a differential refractometer commercialized by Tosoh Corporation, Tokyo, Japan.

For `O=C[C@H](O)[C@@H](O)[C@H](O[C@@H]1O[C@H](CO)[C@@H](O)[C@H](O)[C@H]1O)[C@H](O)CO` [Cellobiose, cellobiose], the “Enzyme action, N75 enzyme” value [1] was “−”, the “Enzyme action, C11 enzyme” value [2] was “−” and the “Enzyme action, A19 enzyme” value [3] was “−”.

For `OC[C@H]1O[C@@H](OC[C@H]2OC(O)[C@H](O)[C@@H](O)[C@@H]2O)[C@H](O)[C@@H](O)[C@@H]1O` (stereo partly drawn) [Gentibiose, gentibiose], the “Enzyme action, N75 enzyme” value [1] was “−”, the “Enzyme action, C11 enzyme” value [2] was “−” and the “Enzyme action, A19 enzyme” value [3] was “−”.

`OC[C@H]1O[C@H](OC[C@H]2O[C@H](O[C@H]3[C@H](O)[C@@H](O)[C@@H](O[C@H]4[C@H](O)[C@@H](O)[C@@H](O)O[C@@H]4CO)O[C@@H]3CO)[C@H](O)[C@@H](O)[C@@H]2O)[C@H](O)[C@@H](O)[C@@H]1O` [Glucosylmaltotriose, α-isomaltosylmaltose] was tested, and the “Sugar composition of reaction mixture, substrate Maltopentaose” value (shortened to “Sugar composition … substrate Maltopentaose”) [4] was 0.0, the “Sugar composition of reaction mixture, substrate Maltotetraose” value (shortened to “Sugar composition … substrate Maltotetraose”) [4] was 6.8 and the “Sugar composition of reaction mixture, substrate Maltotriose” value (shortened to “Sugar composition … substrate Maltotriose”) [4] was 31.5. For the same compound, the “Sugar composition of reaction mixture, substrate Mlatose” value (“Sugar composition … substrate Mlatose” for short) [4] was 2.4.

`OC[C@H]1O[C@H](OC[C@H]2OC(O)[C@H](O)[C@@H](O)[C@@H]2O)[C@H](O)[C@@H](O)[C@@H]1O` (stereo partly drawn) [Isomaltose, isomaltose] was tested, and the “Sugar composition … substrate Maltopentaose” value [4] was 0.0, the “Sugar composition … substrate Maltotetraose” value [4] was 0.0 and the “Sugar composition … substrate Maltotriose” value [4] was 0.0. For the same compound, the “Sugar composition … substrate Mlatose” value [4] was 0.5, the “Enzyme action, N75 enzyme” value [1] was “−” and the “Enzyme action, C11 enzyme” value [2] was “−”. The “Enzyme action, A19 enzyme” value [3] was “−”.

For `OC[C@H]1O[C@H](OC[C@H]2O[C@H](OC[C@H]3OC(O)[C@H](O)[C@@H](O)[C@@H]3O)[C@H](O)[C@@H](O)[C@@H]2O)[C@H](O)[C@@H](O)[C@@H]1O` (stereo partly drawn) [Isomaltotriose, isomaltotriose], the “Enzyme action, N75 enzyme” value [1] was “−”, the “Enzyme action, C11 enzyme” value [2] was “−” and the “Enzyme action, A19 enzyme” value [3] was “−”.

`OC[C@H]1O[C@H](O[C@H]2[C@H](O)[C@@H](O)[C@@H](OC[C@H]3OC(O)[C@H](O)[C@@H](O)[C@@H]3O)O[C@@H]2CO)[C@H](O)[C@@H](O)[C@@H]1O` (stereo partly drawn) [Isopanose, isopanose] was tested, and the “Enzyme action, N75 enzyme” value [1] was “++”, the “Enzyme action, C11 enzyme” value [2] was “++” and the “Enzyme action, A19 enzyme” value [3] was “++”.

`OC[C@H]1O[C@@H](O[C@H]2[C@H](O)[C@@H](O)C(O)O[C@@H]2CO)[C@H](O)[C@@H](O)[C@H]1O` (stereo partly drawn) [Lactose, lactose] was tested, and the “Enzyme action, N75 enzyme” value [1] was “−”, the “Enzyme action, C11 enzyme” value [2] was “−” and the “Enzyme action, A19 enzyme” value [3] was “−”.

For `OC[C@@H](O)[C@@H](O[C@H]1O[C@H](CO)[C@@H](O)[C@H](O)[C@H]1O)[C@H](O)[C@@H](O)CO` [Maltitol, maltitol], the “Enzyme action, N75 enzyme” value [1] was “−”, the “Enzyme action, C11 enzyme” value [2] was “−” and the “Enzyme action, A19 enzyme” value [3] was “−”.

With `OC[C@H]1O[C@H](O[C@H]2O[C@H](CO)[C@@H](O[C@H]3O[C@H](CO)[C@@H](O)[C@H](O)[C@H]3O)[C@H](O)[C@H]2O)[C@H](O)[C@@H](O)[C@@H]1O` [Maltosyl glucoside, maltosyl glucoside] the “Enzyme action, N75 enzyme” value [1] was “++”, the “Enzyme action, C11 enzyme” value [2] was “++” and the “Enzyme action, A19 enzyme” value [3] was “++”.

With `OC[C@H]1O[C@H](O[C@H]2[C@H](O)[C@@H](O)[C@@H](O[C@H]3[C@H](O)[C@@H](O)[C@@H](O[C@H]4[C@H](O)[C@@H](O)C(O)O[C@@H]4CO)O[C@@H]3CO)O[C@@H]2CO)[C@H](O)[C@@H](O)[C@@H]1O` (stereo partly drawn) [Maltotetraose, maltotetraose] the “Sugar composition … substrate Maltopentaose” value [4] was 19.2, the “Sugar composition … substrate Maltotetraose” value [4] was 35.1 and the “Sugar composition … substrate Maltotriose” value [4] was 1.8. The “Sugar composition … substrate Mlatose” value [4] was 0.0, the “Enzyme action, N75 enzyme” value [1] was “+++” and the “Enzyme action, C11 enzyme” value [2] was “+++”. The “Enzyme action, A19 enzyme” value [3] was “+++”.

With `OC[C@H]1O[C@H](OC[C@H]2O[C@H](O[C@H]3[C@H](O)[C@@H](O)C(O)O[C@@H]3CO)[C@H](O)[C@@H](O)[C@@H]2O)[C@H](O)[C@@H](O)[C@@H]1O` (stereo partly drawn) [Panose, panose] the “Sugar composition … substrate Maltopentaose” value [4] was 0.0, the “Sugar composition … substrate Maltotetraose” value [4] was 0.0 and the “Sugar composition … substrate Maltotriose” value [4] was 1.2. The “Sugar composition … substrate Mlatose” value [4] was 8.2, the “Enzyme action, N75 enzyme” value [1] was “−” and the “Enzyme action, C11 enzyme” value [2] was “−”. The “Enzyme action, A19 enzyme” value [3] was “−”.

`OC[C@H]1O[C@H](O[C@H]2O[C@H](CO)[C@@H](O)[C@H](O)[C@H]2O[C@H]2O[C@H](CO)[C@@H](O)[C@H](O)[C@H]2O)[C@H](O)[C@@H](O)[C@@H]1O` [Selaginose, selaginose] was tested, and the “Enzyme action, N75 enzyme” value [1] was “−”, the “Enzyme action, C11 enzyme” value [2] was “−” and the “Enzyme action, A19 enzyme” value [3] was “−”.

With `OC[C@H]1O[C@@](CO)(O[C@H]2O[C@H](CO)[C@@H](O)[C@H](O)[C@H]2O)[C@@H](O)[C@@H]1O` [Sucrose, sucrose] the “Enzyme action, N75 enzyme” value [1] was “−”, the “Enzyme action, C11 enzyme” value [2] was “−” and the “Enzyme action, A19 enzyme” value [3] was “−”.

`OC[C@H]1O[C@H](O[C@H]2O[C@H](CO)[C@@H](O)[C@H](O)[C@H]2O)[C@H](O)[C@@H](O)[C@@H]1O` [Trehalose, trehalose] was tested, and the “Enzyme action, N75 enzyme” value [1] was “−”, the “Enzyme action, C11 enzyme” value [2] was “−” and the “Enzyme action, A19 enzyme” value [3] was “−”.

`OC[C@H]1O[C@H](OC[C@H]2O[C@H](O[C@H]3[C@H](O)[C@@H](O)[C@@H](O[C@H]4[C@H](O)[C@@H](O)[C@@H](O[C@H]5[C@H](O)[C@@H](O)C(O)O[C@@H]5CO)O[C@@H]4CO)O[C@@H]3CO)[C@H](O)[C@@H](O)[C@@H]2O)[C@H](O)[C@@H](O)[C@@H]1O` (stereo partly drawn) [X, α-isomaltosylmaltotriose] was tested, and the “Sugar composition … substrate Maltopentaose” value [4] was 11.4, the “Sugar composition … substrate Maltotetraose” value [4] was 30.0 and the “Sugar composition … substrate Maltotriose” value [4] was 2.1. For the same compound, the “Sugar composition … substrate Mlatose” value [4] was 0.0.

With `OC[C@H]1O[C@H](OC[C@H]2O[C@H](O[C@H]3[C@H](O)[C@@H](O)[C@@H](O[C@H]4[C@H](O)[C@@H](O)[C@@H](O[C@H]5[C@H](O)[C@@H](O)[C@@H](O[C@H]6[C@H](O)[C@@H](O)C(O)O[C@@H]6CO)O[C@@H]5CO)O[C@@H]4CO)O[C@@H]3CO)[C@H](O)[C@@H](O)[C@@H]2O)[C@H](O)[C@@H](O)[C@@H]1O` (stereo partly drawn) [Y, α-isomaltosylmaltotetraose] the “Sugar composition … substrate Maltopentaose” value [4] was 26.8, the “Sugar composition … substrate Maltotetraose” value [4] was 1.4 and the “Sugar composition … substrate Maltotriose” value [4] was 0.0. The “Sugar composition … substrate Mlatose” value [4] was 0.0.

In the case of isomaltosyl glucoside, the “Enzyme action, N75 enzyme” value [1] is reported as “−”, the “Enzyme action, C11 enzyme” value [2] is reported as “−” and the “Enzyme action, A19 enzyme” value [3] is reported as “−”.

With maltoheptaose the “Enzyme action, N75 enzyme” value [1] was “+++”, the “Enzyme action, C11 enzyme” value [2] was “+++” and the “Enzyme action, A19 enzyme” value [3] was “+++”.

With maltohexaose the “Sugar composition … substrate Maltopentaose” value [4] was 4.6, the “Sugar composition … substrate Maltotetraose” value [4] was 0.0 and the “Sugar composition … substrate Maltotriose” value [4] was 0.0. The “Sugar composition … substrate Mlatose” value [4] was 0.0, the “Enzyme action, N75 enzyme” value [1] was “+++” and the “Enzyme action, C11 enzyme” value [2] was “+++”. The “Enzyme action, A19 enzyme” value [3] was “+++”.

For maltopentaose, the “Sugar composition … substrate Maltopentaose” value [4] was 34.4, the “Sugar composition … substrate Maltotetraose” value [4] was 3.5 and the “Sugar composition … substrate Maltotriose” value [4] was 0.0. The “Sugar composition … substrate Mlatose” value [4] was 0.0, the “Enzyme action, N75 enzyme” value [1] was “+++” and the “Enzyme action, C11 enzyme” value [2] was “+++”. The “Enzyme action, A19 enzyme” value [3] was “+++”.

In the case of maltotriose, the “Sugar composition … substrate Maltopentaose” value [4] is reported as 1.9, the “Sugar composition … substrate Maltotetraose” value [4] is reported as 22.7 and the “Sugar composition … substrate Maltotriose” value [4] is reported as 45.3. For the same compound, the “Sugar composition … substrate Mlatose” value [4] was 0.8, the “Enzyme action, N75 enzyme” value [1] was “++” and the “Enzyme action, C11 enzyme” value [2] was “++”. For the same compound, the “Enzyme action, A19 enzyme” value [3] was “++”.
